Where a name gives a salt, the structure may show the parent alone.
How the values were obtained:
Cdc7 = Cdc7 (Homo sapiens, UniProt O00311); assay: Cdc7 cell pharmacodynamics assay Method 3: pS53MCM2 levels in SW48 cells; format: cell-based; parameters: endogenous in cells; host or cells: SW48; details: 6 hours treatment, read-out: Biomarker Method 3 (pEC50) (converted)
Text: This protocol describes a method to investigate the inhibition of Cdc7 activity by measuring pS53MCM2 levels in cells, after treatment with compounds.
• SW48 cells • RPMI 1640 (Sigma, R5886) • 10% FCS (Sera Laboratories International Ltd, EU000F Batch: 108005) • 100× L-Glutamine (Invitrogen, 25030-024) • D-Glucose Solution (10%) (Sigma, G8644) • HEPES Buffer Solution (Sigma, 83264) • Sodium Pyruvate (Sigma, S8636) • PBS (Fisger, BP399-4) • Trypsin/EDTA (Invitrogen 25300-054) • 2% BSA in PBS • Cell Extraction Buffer (Invitrogen FNN0011) • Protease inhibitor cocktail (Sigma P-2714) • PMSF 0.3M stock in DMSO (Sigma P7626) • Antibody—rabbit pMCM2 Ser53 (Bethyl #A300-756A) • Antibody—goat MCM2 (Bethyl #A300-122A) • Antibody—goat Anti Rabbit IgG HRP (Perbio Science UK Ltd 31462) • SuperSignal ELISA Pico Chemiluminescent Substrate (Perbio Science UK Ltd 37070) Method • Plate 30,000 SW48 cells per well in standard TC treated 96 well plate in 100 μL complete RPMI 1640 medium. • Allow cells to settle overnight in incubator set at 37° C. and 5% CO2. • Cell treatment: prepare a 384 well plate containing 80 μl PBS/well. The PBS should be at room temperature—to be referred to as intermediate plate. Transfer 2 μL of compound from mother plate to intermediate (daughter plate) 1:40 dilution, then 5 μL intermediate to cell (daughter) plate. • Once all cells are treated place the cells back to the incubator and incubate for 6 hours. • Dilute the capture antibody (total MCM2 #A300-122A) 1 in 250 in the required volume of PBS (5 mL per assay plate, plus 5 mL for dead volume) and add 50 μL to each well of a Hybond plate. Seal the plate and incubate at room temperature for a minimum of 2 hours. • Defrost aliquot of Invitrogen Cell Extraction Buffer (FNN0011) on ice and supplement with appropriate volume of both Sigma protease inhibitor cocktail (P-2714) and PMSF (final cone 1 mM from a 1 M stock in DMSO). • After the 6 hour cell treatment time, tap out the media from the assay plates and place them in the −80° C. freezer for at least 5 minutes. • Remove plates from freezer and add 20 μL of ice cold complete lysis buffer, with the multidrop. Incubate cells for 30 minutes at 4° C. • Add 80 μL per well 2% BSA. • Flick out the remaining liquid from the capture plate and transfer 80 μL from the lysis plate to the same wells in the capture/ELISA plate, using the Biomek. Cover with plate seal and incubate plates overnight at 4° C. • Wash plates with PBS, remove any residual remaining liquid and add 50 μL per well of pMCM2 Ser53 antibody (#A300-756A) diluted 1 in 100 in 2% BSA. Cover plate and incubate at room temperature for 2 hours with gentle shaking. • Wash plates with PBS, remove any residual remaining liquid and Incubate with 50 μL goat anti rabbit antibody (1 in 800 dilution in 2% BSA), for 1 hour at room temperature. • Wash plates with PBS, remove any residual remaining liquid and add 50 μL mixed SuperSignal Pico substrate. • Incubate each plate for 5 minutes at room temperature shielding the plates from direct light (with a cover plate). Read plates with the luminescent detection. Results

Cdc7/ASK = Cdc7/ASK (Homo sapiens, UniProt O00311); assay: Cdc7 biochemical assay Method 3: off-chip mobility shift assay (MSA) run at Carna Biosciences; parameters: purchased Carna Biosciences; host or cells: baculovirus expression system; details: MCM2 peptide 1000 nM, ATP 5 μM, 5 hours, read-out: Biochemical method 3 (pIC50) (converted)
Method: This protocol describes a method for assaying Cdc7/ASK for activity. The assay is an off-chip mobility shift assay (MSA) run at Carna Biosciences.
The test compound was dissolved in and diluted with dimethylsulfoxide (DMSO) to achieve 100-fold higher concentration which was specified by the sponsor. Then the solution was further 25-fold diluted with assay buffer to make the final test compound solution. Reference compounds for assay control were prepared similarly. 2. Kinase Cdc7/ASK: Full-length human Cdc7 [1-574(end) amino acids of accession number NP_003494.1] was co-expressed as N-terminal GST-fusion protein (92 kDa) with Dbf4(ASK) [1-674(end) amino acids of accession number NP_006707.1] using baculovirus expression system. GST-Cdc7 was purified by using glutathione sepharose chromatography. 3. Assay Reagents and Procedures Off-Chip Mobility Shift Assay (MSA) • 1) The […] were prepared with assay buffer (20 mM HEPES, 0.01% Triton X-100, 1 mM DTT, pH 7.5) and mixed and incubated in a well of polypropylene 384 well microplate for 5 hours at room temperature. • 2) […] of Termination Buffer (QuickScout Screening Assist MSA; Carna Biosciences) was added to the well. • 3) The reaction mixture was applied to LabChip system (Perkin Elmer), and the product and substrate peptide peaks were separated and quantitated. • 4) The kinase reaction was evaluated by the product ratio calculated from peak heights of product (P) and substrate (S) peptides (P/(P+S)). 4. Reaction Conditions
5. Data Analysis The readout value of reaction control (complete reaction mixture) was set as a 0% inhibition, and the readout value of background (Enzyme(−)) was set as a 100% inhibition, then the percent inhibition of each test solution was calculated. IC50 value was calculated from concentration vs. % Inhibition curves by fitting to a four parameter logistic curve. Results

Cdc7/ASK, sequence (O00311 whole entry): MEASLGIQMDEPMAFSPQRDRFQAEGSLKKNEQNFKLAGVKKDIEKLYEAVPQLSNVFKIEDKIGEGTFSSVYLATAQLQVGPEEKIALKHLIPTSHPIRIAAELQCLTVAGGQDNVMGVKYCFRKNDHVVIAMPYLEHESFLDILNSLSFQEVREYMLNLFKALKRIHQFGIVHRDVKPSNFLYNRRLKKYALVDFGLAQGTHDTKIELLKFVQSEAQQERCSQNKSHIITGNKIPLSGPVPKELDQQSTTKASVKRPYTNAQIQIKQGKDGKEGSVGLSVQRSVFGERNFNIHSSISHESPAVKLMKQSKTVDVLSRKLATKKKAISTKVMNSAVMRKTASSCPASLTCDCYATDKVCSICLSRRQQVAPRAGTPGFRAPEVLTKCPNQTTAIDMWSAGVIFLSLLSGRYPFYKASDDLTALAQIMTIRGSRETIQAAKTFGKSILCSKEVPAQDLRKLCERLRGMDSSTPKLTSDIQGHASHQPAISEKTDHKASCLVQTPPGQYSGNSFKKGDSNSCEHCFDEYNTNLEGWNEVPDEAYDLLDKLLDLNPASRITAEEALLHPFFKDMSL
Cdc7/ASK, sequence (Q9UBU7 whole entry partner): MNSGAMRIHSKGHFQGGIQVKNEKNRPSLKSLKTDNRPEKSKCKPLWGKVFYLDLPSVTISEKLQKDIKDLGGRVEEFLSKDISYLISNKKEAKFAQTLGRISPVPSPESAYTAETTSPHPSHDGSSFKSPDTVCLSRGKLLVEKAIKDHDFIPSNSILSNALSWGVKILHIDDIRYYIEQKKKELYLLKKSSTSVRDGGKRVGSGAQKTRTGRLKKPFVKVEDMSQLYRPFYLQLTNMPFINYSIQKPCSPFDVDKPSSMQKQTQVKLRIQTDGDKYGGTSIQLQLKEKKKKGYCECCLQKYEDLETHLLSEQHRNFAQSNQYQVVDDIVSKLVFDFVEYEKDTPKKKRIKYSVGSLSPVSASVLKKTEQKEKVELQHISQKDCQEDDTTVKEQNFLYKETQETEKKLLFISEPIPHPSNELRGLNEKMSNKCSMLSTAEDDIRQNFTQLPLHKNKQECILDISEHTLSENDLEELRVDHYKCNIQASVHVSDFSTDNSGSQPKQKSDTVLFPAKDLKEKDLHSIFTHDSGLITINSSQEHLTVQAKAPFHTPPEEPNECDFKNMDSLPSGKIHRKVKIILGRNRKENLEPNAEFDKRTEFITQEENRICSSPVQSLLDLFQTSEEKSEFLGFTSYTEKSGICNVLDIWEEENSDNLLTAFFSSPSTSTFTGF
Cdc7, sequence (O00311 whole entry): as the sequence (O00311 whole entry) above
Cdc7, sequence (Q9UBU7 whole entry partner): as the sequence (Q9UBU7 whole entry partner) above

Row | Compound | EC50 (Cdc7) [nM] | IC50 (Cdc7/ASK) [nM]
1 | O=c1[nH]c(-c2scnc2Cl)nc(N2CCNCC2C(F)F)c1Cl (single isomer, unassigned) [Compound 69, 5-chloro-2-(4-chlorothiazol-5-yl)-4-[2-(difluoromethyl)piperazin-1-yl]-1H-pyrimidin-6-one hydrochloride] | 16.6 | 3.39
2 | O=c1[nH]c(-c2scnc2Cl)nc(N2CCNCC(F)C2)c1Cl (single isomer, unassigned) [Compound 73, 5-chloro-2-(4-chlorothiazol-5-yl)-4-(6-fluoro-1,4-diazepan-1-yl)-1H-pyrimidin-6-one hydrochloride] | 1320 | 10.2
3 | C[C@@H]1COCCN1c1nc(-c2cn[nH]c2Cl)[nH]c(=O)c1Cl [Compound 42, 5-chloro-2-(5-chloro-1H-pyrazol-4-yl)-4-[(3R)-3-methylmorpholin-4-yl]-1H-pyrimidin-6-one] | 389 | 3.8
4 | Cc1nocc1-c1nc(N2CCNC[C@H]2C)c(Cl)c(=O)[nH]1 [Compound 49, 5-chloro-2-(3-methylisoxazol-4-yl)-4-[(2R)-2-methylpiperazin-1-yl]-1H-pyrimidin-6-one] | 4570 | 51.3
5 | C[C@@H]1CNCCN1c1nc(-c2ccnn2C)[nH]c(=O)c1Cl [Compound 50, 5-chloro-4-[(2R)-2-methylpiperazin-1-yl]-2-(2-methylpyrazol-3-yl)-1H-pyrimidin-6-one] | 3630 | 43.7
6 | Cc1nccn1-c1nc(N2CCOC[C@H]2C)c(Cl)c(=O)[nH]1 [Compound 56, 5-chloro-2-(2-methylimidazol-1-yl)-4-[(3R)-3-methylmorpholin-4-yl]-1H-pyrimidin-6-one] | 4170 | 44.7
7 | Cc1ncsc1-c1nc(N2CCNCC(F)(F)C2)c(Cl)c(=O)[nH]1 [Compound 57, 5-chloro-4-(6,6-difluoro-1,4-diazepan-1-yl)-2-(4-methylthiazol-5-yl)-1H-pyrimidin-6-one hydrochloride] | 724 | 6.46
8 | Cc1ncsc1-c1nc(N2CCNC[C@H]2C)c(Cl)c(=O)[nH]1 [Compound 58, 5-chloro-4-[(2R)-2-methylpiperazin-1-yl]-2-(4-methylthiazol-5-yl)-1H-pyrimidin-6-one] | 331 | 7.08
9 | Cc1ncsc1-c1nc(N2CCOC[C@H]2C)c(Cl)c(=O)[nH]1 [Compound 59, 5-chloro-4-[(3R)-3-methylmorpholin-4-yl]-2-(4-methylthiazol-5-yl)-1H-pyrimidin-6-one] | 724 | 7.41
10 | Cc1ncsc1-c1nc(N2CCNCC2C(F)(F)F)c(Cl)c(=O)[nH]1 (centres unmarked) [Compound 60, 5-chloro-2-(4-methylthiazol-5-yl)-4-[2-(trifluoromethyl)piperazin-1-yl]-1H-pyrimidin-6-one] | 1230 | 20
11 | Cc1ncsc1-c1nc(N2CCNCC2C(F)F)c(Cl)c(=O)[nH]1 (centres unmarked) [Compound 61, 5-chloro-4-[2-(difluoromethyl)piperazin-1-yl]-2-(4-methylthiazol-5-yl)-1H-pyrimidin-6-one] | 162 | 12.9
12 | O=c1[nH]c(-c2scnc2C(F)(F)F)nc(N2CCNCC(F)(F)C2)c1Cl [Compound 63, 5-chloro-4-(6,6-difluoro-1,4-diazepan-1-yl)-2-[4-(trifluoromethyl)thiazol-5-yl]-1H-pyrimidin-6-one] | 525 | 5.5
13 | O=c1[nH]c(-c2scnc2Cl)nc(N2CCNCC2C(F)F)c1Cl (centres unmarked) [Compound 67, 5-chloro-2-(4-chlorothiazol-5-yl)-4-[2-(difluoromethyl)piperazin-1-yl]-1H-pyrimidin-6-one] | 97.7 | 6.03
14 | O=c1[nH]c(-c2scnc2Cl)nc(N2CCNCC2C(F)(F)F)c1Cl (centres unmarked) [Compound 68, 5-chloro-2-(4-chlorothiazol-5-yl)-4-[2-(trifluoromethyl)piperazin-1-yl]-1H-pyrimidin-6-one] | 200 | 6.92

Results, then the compound that gave them:

Row | EC50 (Cdc7) [nM] | IC50 (Cdc7/ASK) [nM] | Compound
15 | 251 | 5.75 | O=c1[nH]c(-c2scnc2Cl)nc(N2CCNCC(F)C2)c1Cl (racemic) [Compound 71, 5-chloro-2-(4-chlorothiazol-5-yl)-4-(6-fluoro-1,4-diazepan-1-yl)-1H-pyrimidin-6-one hydrochloride]
16 | 324 | 6.76 | O=c1[nH]c(-c2scnc2Cl)nc(N2CCNCC2C(F)F)c1Cl (single isomer, unassigned) [Compound 70, 5-chloro-2-(4-chlorothiazol-5-yl)-4-[2-(difluoromethyl)piperazin-1-yl]-1H-pyrimidin-6-one hydrochloride]
17 | 95.5 | 3.8 | O=c1[nH]c(-c2scnc2Cl)nc(N2CCNCC(F)C2)c1Cl (single isomer, unassigned) [Compound 72, 5-chloro-2-(4-chlorothiazol-5-yl)-4-(6-fluoro-1,4-diazepan-1-yl)-1H-pyrimidin-6-one hydrochloride]
18 | 195 | 3.72 | O=c1[nH]c(-c2cn[nH]c2Cl)nc(N2CCNCC(F)(F)C2)c1Cl [Compound 40, 5-chloro-2-(5-chloro-1H-pyrazol-4-yl)-4-(6,6-difluoro-1,4-diazepan-1-yl)-1H-pyrimidin-6-one hydrochloride]
19 | 977 | 21.4 | Cc1ncsc1-c1nc(N2CCNCC(F)C2)c(Cl)c(=O)[nH]1 (centres unmarked) [Compound 62, 5-chloro-4-(6-fluoro-1,4-diazepan-1-yl)-2-(4-methylthiazol-5-yl)-1H-pyrimidin-6-one]
20 | 166 | 4.17 | C[C@@H]1COCCN1c1nc(-c2scnc2Cl)[nH]c(=O)c1Cl [Compound 64, 5-chloro-2-(4-chlorothiazol-5-yl)-4-[(3R)-3-methylmorpholin-4-yl]-1H-pyrimidin-6-one]
21 | 38 | 3.89 | C[C@@H]1CNCCN1c1nc(-c2scnc2Cl)[nH]c(=O)c1Cl [Compound 65, 5-chloro-2-(4-chlorothiazol-5-yl)-4-[(2R)-2-methylpiperazin-1-yl]-1H-pyrimidin-6-one hydrochloride]
22 | 75.9 | 4.27 | O=c1[nH]c(-c2scnc2Cl)nc(N2CCNCC(F)(F)C2)c1Cl [Compound 66, 5-chloro-2-(4-chlorothiazol-5-yl)-4-(6,6-difluoro-1,4-diazepan-1-yl)-1H-pyrimidin-6-one hydrochloride]

— US11766434B2, “Pyrimidinone derivatives as CDC7 inhibitors” (Cancer Research Technology Limited, priority 2016, dated 2023)
